Measurements taken from PubChem BioAssay AID1347054 (Pharmacoinformatics Research Group Wien, 2019).
Calls of active or inactive are those of the source.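 The calls were made as follows: active = clear block of the BCRP drug efflux pump at 10 µM versus solvent-only wells, p under 0.05; inactive = the rest.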

Target: Broad substrate specificity ATP-binding cassette transporter ABCG2 (Homo sapiens) (UniProt Q9UNQ0)
Assay: BCRP efflux transporter inhibitors, PLB985 cells, flow cytometry (AID 1347054)
Conditions: mitoxantrone accumulation, at 10 µM, stronger effect = higher value

Chain of Broad substrate specificity ATP-binding cassette transporter ABCG2 (Homo sapiens) (Q9UNQ0 whole entry, looked up): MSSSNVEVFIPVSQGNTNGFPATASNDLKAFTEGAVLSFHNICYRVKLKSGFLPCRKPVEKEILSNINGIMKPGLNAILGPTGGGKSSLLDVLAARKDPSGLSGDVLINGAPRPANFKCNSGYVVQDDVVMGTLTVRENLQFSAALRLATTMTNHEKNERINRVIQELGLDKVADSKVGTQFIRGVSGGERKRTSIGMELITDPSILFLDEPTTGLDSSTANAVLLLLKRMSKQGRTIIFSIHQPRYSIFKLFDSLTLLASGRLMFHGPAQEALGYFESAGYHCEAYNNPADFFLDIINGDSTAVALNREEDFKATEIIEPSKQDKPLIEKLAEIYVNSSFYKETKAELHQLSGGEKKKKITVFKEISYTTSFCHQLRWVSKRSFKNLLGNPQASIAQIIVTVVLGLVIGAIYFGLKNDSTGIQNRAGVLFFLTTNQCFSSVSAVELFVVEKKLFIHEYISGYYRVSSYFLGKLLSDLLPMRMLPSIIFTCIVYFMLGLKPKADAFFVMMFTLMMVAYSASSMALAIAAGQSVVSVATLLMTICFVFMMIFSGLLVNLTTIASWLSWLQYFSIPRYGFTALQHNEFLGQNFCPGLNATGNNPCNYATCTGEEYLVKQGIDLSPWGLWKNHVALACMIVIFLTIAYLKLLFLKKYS

Row | SMILES | inhibition
1 | COc1cc(N)c(Cl)cc1C(=O)N[C@@H]1CCN(CCCOc2ccc(F)cc2)C[C@@H]1OC | 83.8%
2 | CS(C)=O | 0% (inactive)
3 | CN(Cc1ccc(C(C)(C)C)cc1)Cc1cccc2ccccc12 | 10.8% (inactive)
4 | C[C@]12CCC(=O)C=C1[C@@H]1C[C@@H]1[C@H]1[C@@H]3[C@@H]4C[C@@H]4[C@@]4(CCC(=O)O4)[C@@]3(C)CC[C@@H]12 | 14.4% (inactive)
5 | CN(C/C=C/C#CC(C)(C)C)Cc1cccc2ccccc12 | 9.86% (inactive)
6 | O=C(Nc1c(Cl)cncc1Cl)c1ccc(OC(F)F)c(OCC2CC2)c1 | 61.7%
7 | COc1cc(NS(C)(=O)=O)ccc1Nc1c2ccccc2nc2ccccc12 | 13.7% (inactive)
8 | C=C1CC[C@H](O)C/C1=C/C=C1\CCC[C@]2(C)[C@@H]([C@H](C)CCCC(C)C)CC[C@@H]12 | 1.28% (inactive)
9 | COc1ccc2c(c1)C13CCCC[C@@H]1C(C2)N(C)CC3 (stereo partly specified) | -6.11% (inactive)
10 | CCCCN(CCCC)CCC(O)c1cc2c(Cl)cc(Cl)cc2c2cc(C(F)(F)F)ccc12 (stereo unspecified) | -9.66% (inactive)
11 | COc1ccc(C(=O)Nc2ccccc2CCC2CCCCN2C)cc1 (stereo unspecified) | 13.3% (inactive)
